Source: patent publication US20230085307A1, “PYRIDAZINONE COMPOUND AND HERBICIDE” (NISSAN CHEMICAL CORPORATION, priority 2019, published 2023)

What was measured:
southern crabgrass [1] = assay: Test Example 4: herbicidal effect by soil treatment (Table 19, symbol F); type: in vivo, southern crabgrass (Digitaria ciliaris); conditions: amount of applied herbicide 320 g/ha
Outline: (§1)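 Scoring uses the grading scale of an earlier test, three weeks post-application. Treatment consists of spraying a diluted emulsion formulation across the surface of sterilized diluvial soil in which seeds are buried near 1.5 cm deep; boxes are kept in a greenhouse between 25° C. and 30° C.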

green foxtail [2] = assay: Test Example 4: herbicidal effect by soil treatment (Table 19, symbol G); type: in vivo, green foxtail (Setaria viridis); conditions: amount of applied herbicide 320 g/ha
Outline: as §1

barnyard grass [3] = assay: Test Example 4: herbicidal effect by soil treatment (Table 19, symbol H); type: in vivo, barnyard grass (Echinochloa crus-galli); conditions: amount of applied herbicide 320 g/ha
Outline: as §1

wild oat [4] = assay: Test Example 4: herbicidal effect by soil treatment (Table 19, symbol I); type: in vivo, wild oat (Avena fatua); conditions: amount of applied herbicide 320 g/ha
Outline: as §1

blackgrass [5] = assay: Test Example 4: herbicidal effect by soil treatment (Table 19, symbol J); type: in vivo, blackgrass (Alopecurus myosuroides); conditions: amount of applied herbicide 320 g/ha
Outline: as §1

Italian ryegrass [6] = assay: Test Example 4: herbicidal effect by soil treatment (Table 19, symbol K); type: in vivo, Italian ryegrass (Lolium multiflorum); conditions: amount of applied herbicide 320 g/ha
Outline: as §1

windgrass [7] = assay: Test Example 4: herbicidal effect by soil treatment (Table 19, symbol L); type: in vivo, windgrass (Apera spica-venti); conditions: amount of applied herbicide 320 g/ha
Outline: as §1

velvetleaf [8] = assay: Test Example 4: herbicidal effect by soil treatment (Table 19, symbol M); type: in vivo, velvetleaf (Abutilon theophrasti); conditions: amount of applied herbicide 320 g/ha
Outline: as §1

redroot pigweed [9] = assay: Test Example 4: herbicidal effect by soil treatment (Table 19, symbol N); type: in vivo, redroot pigweed (Amaranthus retroflexus); conditions: amount of applied herbicide 320 g/ha
Outline: as §1

lambsquarters [10] = assay: Test Example 4: herbicidal effect by soil treatment (Table 19, symbol O); type: in vivo, lambsquarters (Chenopodium album); conditions: amount of applied herbicide 320 g/ha
Outline: as §1

chickweed [11] = assay: Test Example 4: herbicidal effect by soil treatment (Table 19, symbol P); type: in vivo, common chickweed (Stellaria media); conditions: amount of applied herbicide 320 g/ha
Outline: as §1

false cleavers [12] = assay: Test Example 4: herbicidal effect by soil treatment (Table 19, symbol Q); type: in vivo, false cleavers (Galium spurium); conditions: amount of applied herbicide 320 g/ha
Outline: as §1

southern crabgrass [13] = assay: Test Example 5: herbicidal effect by foliage application, plastic box (Table 20, symbol F); type: in vivo, southern crabgrass (Digitaria ciliaris); conditions: foliage application, evaluated three weeks after application
Outline: (§2)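 Post-emergence foliar test in sterilized diluvial soil. Compound applied as water-diluted emulsion at a predetermined rate to 14-day-old plants; evaluation at three weeks.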

green foxtail [14] = assay: Test Example 5: herbicidal effect by foliage application, plastic box (Table 20, symbol G); type: in vivo, green foxtail (Setaria viridis); conditions: foliage application, evaluated three weeks after application
Outline: as §2

barnyard grass [15] = assay: Test Example 5: herbicidal effect by foliage application, plastic box (Table 20, symbol H); type: in vivo, barnyard grass (Echinochloa crus-galli); conditions: foliage application, evaluated three weeks after application
Outline: as §2

wild oat [16] = assay: Test Example 5: herbicidal effect by foliage application, plastic box (Table 20, symbol I); type: in vivo, wild oat (Avena fatua); conditions: foliage application, evaluated three weeks after application
Outline: as §2

blackgrass [17] = assay: Test Example 5: herbicidal effect by foliage application, plastic box (Table 20, symbol J); type: in vivo, blackgrass (Alopecurus myosuroides); conditions: foliage application, evaluated three weeks after application
Outline: as §2

Italian ryegrass [18] = assay: Test Example 5: herbicidal effect by foliage application, plastic box (Table 20, symbol K); type: in vivo, Italian ryegrass (Lolium multiflorum); conditions: foliage application, evaluated three weeks after application
Outline: as §2

windgrass [19] = assay: Test Example 5: herbicidal effect by foliage application, plastic box (Table 20, symbol L); type: in vivo, windgrass (Apera spica-venti); conditions: foliage application, evaluated three weeks after application
Outline: as §2

velvetleaf [20] = assay: Test Example 5: herbicidal effect by foliage application, plastic box (Table 20, symbol M); type: in vivo, velvetleaf (Abutilon theophrasti); conditions: foliage application, evaluated three weeks after application
Outline: as §2

redroot pigweed [21] = assay: Test Example 5: herbicidal effect by foliage application, plastic box (Table 20, symbol N); type: in vivo, redroot pigweed (Amaranthus retroflexus); conditions: foliage application, evaluated three weeks after application
Outline: as §2

lambsquarters [22] = assay: Test Example 5: herbicidal effect by foliage application, plastic box (Table 20, symbol O); type: in vivo, lambsquarters (Chenopodium album); conditions: foliage application, evaluated three weeks after application
Outline: as §2

chickweed [23] = assay: Test Example 5: herbicidal effect by foliage application, plastic box (Table 20, symbol P); type: in vivo, common chickweed (Stellaria media); conditions: foliage application, evaluated three weeks after application
Outline: as §2

false cleavers [24] = assay: Test Example 5: herbicidal effect by foliage application, plastic box (Table 20, symbol Q); type: in vivo, false cleavers (Galium spurium); conditions: foliage application, 320 g/ha, evaluated three weeks after application
Outline: as §2

persian speedwell [25] = assay: Test Example 5: herbicidal effect by foliage application, plastic box (Table 20, symbol R); type: in vivo, Persian speedwell (Veronica persica); conditions: foliage application, evaluated three weeks after application
Outline: as §2

late watergrass = assay: Test Example 1: herbicidal activity, application before weed generation under submerged conditions (Table 16, symbol A); type: in vivo, late watergrass (Echinochloa oryzicola); conditions: 320 g/ha applied herbicide
Outline: (§3)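 Emulsion formulation, water-diluted to set dose, was put onto the flooded surface (4 cm depth, alluvial soil) the same day weeds were sown and 2.5-leaf rice transplanted. After 3 weeks at 25-30 °C under glass, each species was rated 0 (≤5% kill) to 5 (≥90% kill).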

Japanese bulrush = assay: Test Example 1: herbicidal activity, application before weed generation under submerged conditions (Table 16, symbol B); type: in vivo, Japanese bulrush (Schoenoplectus juncoides); conditions: 320 g/ha applied herbicide
Outline: as §3

oval-leafed pondweed = assay: Test Example 1: herbicidal activity, application before weed generation under submerged conditions (Table 16, symbol C); type: in vivo, oval-leafed pondweed (Monochoria vaginalis); conditions: 320 g/ha applied herbicide
Outline: as §3

barnyard grass [26] = assay: Test Example 3: herbicidal effect by foliage application, Wagner pot (Table 18, symbol H); type: in vivo, barnyard grass (Echinochloa crus-galli); conditions: amount of applied herbicide 320 g/ha
Outline: (§4)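 Plants were sown in alluvial soil held under 0.1–0.5 cm standing water and grown 14 days in a greenhouse at 25–30 °C. An emulsifiable formulation, water-diluted to the set dose, was then sprayed onto the foliage, and effects were scored three weeks later using previously defined criteria.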

Chinese sprangletop = assay: Test Example 3: herbicidal effect by foliage application, Wagner pot (Table 18, symbol D); type: in vivo, chinese sprangletop (Leptochloa chinensis); conditions: amount of applied herbicide 320 g/ha
Outline: as §4

rice flat sedge = assay: Test Example 3: herbicidal effect by foliage application, Wagner pot (Table 18, symbol E); type: in vivo, rice flat sedge (Cyperus iria); conditions: amount of applied herbicide 320 g/ha
Outline: as §4

persian speedwell [27] = assay: Test Example 4: herbicidal effect by soil treatment (Table 19, symbol R); type: in vivo, Persian speedwell (Veronica persica); conditions: amount of applied herbicide 320 g/ha
Outline: as §1

COc1cccc(OC)c1-c1sc2ccc(Cl)cc2c1-c1c(O)c(C)nn(C)c1=O [2-121]
F: southern crabgrass, herbicidal effect rating (southern crabgrass [1]): 0 (Herbicidal rate of 5% or less (almost no effect))
G: green foxtail, herbicidal effect rating (green foxtail [2]): 0 (Herbicidal rate of 5% or less (almost no effect))
H: barnyard grass, herbicidal effect rating (barnyard grass [3]): 0 (Herbicidal rate of 5% or less (almost no effect))
I: wild oat, herbicidal effect rating (wild oat [4]): 0 (Herbicidal rate of 5% or less (almost no effect))
J: blackgrass, herbicidal effect rating (blackgrass [5]): 0 (Herbicidal rate of 5% or less (almost no effect))
K: Italian ryegrass, herbicidal effect rating (Italian ryegrass [6]): 0 (Herbicidal rate of 5% or less (almost no effect))
L: windgrass, herbicidal effect rating (windgrass [7]): 0 (Herbicidal rate of 5% or less (almost no effect))
M: velvetleaf, herbicidal effect rating (velvetleaf [8]): 0 (Herbicidal rate of 5% or less (almost no effect))
N: redroot pigweed, herbicidal effect rating (redroot pigweed [9]): 0 (Herbicidal rate of 5% or less (almost no effect))
O: lambsquarters, herbicidal effect rating (lambsquarters [10]): 0 (Herbicidal rate of 5% or less (almost no effect))
P: chickweed, herbicidal effect rating (chickweed [11]): 3 (Herbicidal rate of 40% or more and less than 70%)
Q: false cleavers, herbicidal effect rating (false cleavers [12]): 0 (Herbicidal rate of 5% or less (almost no effect))
herbicidal effect on F: southern crabgrass (southern crabgrass [13]; 320 g/ha): 0 (Herbicidal rate of 5% or less (almost no effect))
herbicidal effect on G: green foxtail (green foxtail [14]; 320 g/ha): 0 (Herbicidal rate of 5% or less (almost no effect))
herbicidal effect on H: barnyard grass (barnyard grass [15]; 320 g/ha): 0 (Herbicidal rate of 5% or less (almost no effect))
herbicidal effect on I: wild oat (wild oat [16]; 320 g/ha): 0 (Herbicidal rate of 5% or less (almost no effect))
herbicidal effect on J: blackgrass (blackgrass [17]; 320 g/ha): 0 (Herbicidal rate of 5% or less (almost no effect))
herbicidal effect on K: Italian ryegrass (Italian ryegrass [18]; 320 g/ha): 0 (Herbicidal rate of 5% or less (almost no effect))
herbicidal effect on L: windgrass (windgrass [19]; 320 g/ha): 0 (Herbicidal rate of 5% or less (almost no effect))
herbicidal effect on M: velvetleaf (velvetleaf [20]; 320 g/ha): 0 (Herbicidal rate of 5% or less (almost no effect))
herbicidal effect on N: redroot pigweed (redroot pigweed [21]; 320 g/ha): 0 (Herbicidal rate of 5% or less (almost no effect))
herbicidal effect on O: lambsquarters (lambsquarters [22]; 320 g/ha): 0 (Herbicidal rate of 5% or less (almost no effect))
herbicidal effect on P: chickweed (chickweed [23]; 320 g/ha): 3 (Herbicidal rate of 40% or more and less than 70%)
herbicidal effect on Q: false cleavers (false cleavers [24]): 2 (Herbicidal rate of 20% or more and less than 40%)
herbicidal effect on R: persian speedwell (persian speedwell [25]; 320 g/ha): 0 (Herbicidal rate of 5% or less (almost no effect))

CSCCSCc1ccc(-c2sc3ccc(F)cc3c2-c2c(O)c(C)nn(C)c2=O)cc1 [2-329]
Herbicidal effect on A: late watergrass (grade 0-5) (late watergrass): 2 (Herbicidal rate of 20% or more and less than 40%)
Herbicidal effect on B: Japanese bulrush (grade 0-5) (Japanese bulrush): 0 (Herbicidal rate of 5% or less (almost no effect))
Herbicidal effect on C: oval-leafed pondweed (grade 0-5) (oval-leafed pondweed): 0 (Herbicidal rate of 5% or less (almost no effect))
herbicidal effect on H: barnyard grass (barnyard grass [26]): 5 (Herbicidal rate of 90% or more (almost completely withered))
herbicidal effect on D: Chinese sprangletop (Chinese sprangletop): 4 (Herbicidal rate of 70% or more and less than 90%)
herbicidal effect on E: rice flat sedge (rice flat sedge): 4 (Herbicidal rate of 70% or more and less than 90%)
herbicidal effect on F: southern crabgrass (southern crabgrass [1]): 0 (Herbicidal rate of 5% or less (almost no effect))
herbicidal effect on G: green foxtail (green foxtail [2]): 0 (Herbicidal rate of 5% or less (almost no effect))
herbicidal effect on H: barnyard grass (barnyard grass [3]): 0 (Herbicidal rate of 5% or less (almost no effect))
herbicidal effect on I: wild oat (wild oat [4]): 0 (Herbicidal rate of 5% or less (almost no effect))
herbicidal effect on J: blackgrass (blackgrass [5]): 0 (Herbicidal rate of 5% or less (almost no effect))
herbicidal effect on K: Italian ryegrass (Italian ryegrass [6]): 0 (Herbicidal rate of 5% or less (almost no effect))
herbicidal effect on L: windgrass (windgrass [7]): 0 (Herbicidal rate of 5% or less (almost no effect))
herbicidal effect on M: velvetleaf (velvetleaf [8]): 0 (Herbicidal rate of 5% or less (almost no effect))
herbicidal effect on N: redroot pigweed (redroot pigweed [9]): 3 (Herbicidal rate of 40% or more and less than 70%)
herbicidal effect on O: lambsquarters (lambsquarters [10]): 0 (Herbicidal rate of 5% or less (almost no effect))
herbicidal effect on P: chickweed (chickweed [11]): 0 (Herbicidal rate of 5% or less (almost no effect))
herbicidal effect on Q: false cleavers (false cleavers [12]): 0 (Herbicidal rate of 5% or less (almost no effect))
herbicidal effect on R: persian speedwell (persian speedwell [27]): 0 (Herbicidal rate of 5% or less (almost no effect))
F: southern crabgrass, herbicidal effect (criteria 0-5) (southern crabgrass [13]; AAH 320 g/ha): 5 (Herbicidal rate of 90% or more (almost completely withered))
G: green foxtail, herbicidal effect (criteria 0-5) (green foxtail [14]; AAH 320 g/ha): 5 (Herbicidal rate of 90% or more (almost completely withered))
H: barnyard grass, herbicidal effect (criteria 0-5) (barnyard grass [15]; AAH 320 g/ha): 4 (Herbicidal rate of 70% or more and less than 90%)
I: wild oat, herbicidal effect (criteria 0-5) (wild oat [16]; AAH 320 g/ha): 3 (Herbicidal rate of 40% or more and less than 70%)
J: blackgrass, herbicidal effect (criteria 0-5) (blackgrass [17]; AAH 320 g/ha): 4 (Herbicidal rate of 70% or more and less than 90%)
K: Italian ryegrass, herbicidal effect (criteria 0-5) (Italian ryegrass [18]; AAH 320 g/ha): 4 (Herbicidal rate of 70% or more and less than 90%)
L: windgrass, herbicidal effect (criteria 0-5) (windgrass [19]; AAH 320 g/ha): 5 (Herbicidal rate of 90% or more (almost completely withered))
M: velvetleaf, herbicidal effect (criteria 0-5) (velvetleaf [20]; AAH 320 g/ha): 5 (Herbicidal rate of 90% or more (almost completely withered))
N: redroot pigweed, herbicidal effect (criteria 0-5) (redroot pigweed [21]; AAH 320 g/ha): 5 (Herbicidal rate of 90% or more (almost completely withered))
O: lambsquarters, herbicidal effect (criteria 0-5) (lambsquarters [22]; AAH 320 g/ha): 4 (Herbicidal rate of 70% or more and less than 90%)
P: chickweed, herbicidal effect (criteria 0-5) (chickweed [23]; AAH 320 g/ha): 5 (Herbicidal rate of 90% or more (almost completely withered))
R: persian speedwell, herbicidal effect (criteria 0-5) (persian speedwell [25]; AAH 320 g/ha): 5 (Herbicidal rate of 90% or more (almost completely withered))
